Literature values as cited in patent US8575311B2, “Collagen peptide conjugates and uses therefor” (Purdue Research Foundation, priority 2008, dated 2013).

Conditions: comparison value, conditions not given

- Tm of comparison peptide: 67 °C
Substance: (Pro-Hyp-Gly)9
